Results on 18 molecules are retold here after ChEMBL document CHEMBL1158443, “Discovery of novel lipophilic inhibitors of OXA-10 enzyme (class D beta-lactamase) by screening amino analogs and homologs of citrate and isocitrate” (Bioorg Med Chem Lett, 2009).

The test system of data set [1] is Bacillus cereus. The data set is described as follows: Inhibition of Bacillus cereus BC2 beta-lactamase assessed as residual activity at 100 uM at pH 7 using HEPES buffer by spectrophotometry; values are per cent of control.
The nature of data set [2]: Inhibition of TEM1 beta-lactamase assessed as residual activity at 100 uM at pH 7 using phosphate buffer by spectrophotometry; values are per cent of control.
The test system of data set [3] is Bacillus cereus. The data set is described as follows: Inhibition of Bacillus cereus BC2 beta-lactamase assessed as residual activity at 100 uM at pH 5 using acetate buffer by spectrophotometry; values are per cent of control.
Data set [4] has as its target Beta-lactamase (Enterobacter cloacae) (UniProt P05364). The data set is described as follows: Inhibition of Enterobacter cloacae P99 beta-lactamase assessed as residual activity at 100 uM at pH 7 using phosphate buffer by spectrophotometry; values are per cent of control.
In data set [5] the target is Beta-lactamase (Bacillus licheniformis) (UniProt P00808). The data set is described as follows: Inhibition of Bacillus licheniformis BS3 beta-lactamase assessed as residual activity at 100 uM at pH 7 using phosphate buffer by spectrophotometry; values are per cent of control.
Data set [6] can be described thus: Activity of TEM1 beta-lactamase.
The test system of data set [7] is Bacillus cereus. As to the kind of experiment: Activity of Bacillus cereus BC2 beta-lactamase.
Data set [8] is described as follows: Ratio of Kcat to Km for TEM1 beta-lactamase.
Data set [9] deals with T1, Imipenem-hydrolyzing beta-lactamase (Enterobacter cloacae) (UniProt P52663).
T1 sequence (whole entry): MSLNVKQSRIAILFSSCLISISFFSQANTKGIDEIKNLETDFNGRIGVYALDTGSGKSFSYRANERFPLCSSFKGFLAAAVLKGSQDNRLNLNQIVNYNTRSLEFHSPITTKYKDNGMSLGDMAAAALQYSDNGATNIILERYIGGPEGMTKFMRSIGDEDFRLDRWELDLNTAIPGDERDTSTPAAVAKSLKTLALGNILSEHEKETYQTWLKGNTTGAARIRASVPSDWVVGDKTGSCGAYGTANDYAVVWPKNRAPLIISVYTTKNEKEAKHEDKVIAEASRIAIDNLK
The data set is described as follows: Ratio of Kcat to Km for Enterobacter cloacae NMCA beta-lactamase.

In data set [10] the target is Beta-lactamase OXA-10 (Pseudomonas aeruginosa) (UniProt P14489). The data set is described as follows: Ratio of Kcat to Km for Pseudomonas aeruginosa OXA10 beta-lactamase.
Data set [11] has as its system Bacillus cereus. As to the kind of experiment: Ratio of Kcat to Km for Bacillus cereus BC2 beta-lactamase.
Data set [12] addresses Beta-lactamase VIM-4 (Pseudomonas aeruginosa) (UniProt Q8KRJ3). The data set is described as follows: Ratio of Kcat to Km for Pseudomonas aeruginosa VIM4 beta-lactamase.
The target in data set [13] is Beta-lactamase OXA-10 (Pseudomonas aeruginosa) (UniProt P14489). The data set is described as follows: Inhibition of Pseudomonas aeruginosa OXA10 beta-lactamase assessed as residual activity at 100 uM at pH 7 using phosphate buffer by spectrophotometry; values are per cent of control.
The nature of data set [14]: Inhibition of TEM1 beta-lactamase assessed as residual activity at 100 uM at pH 5 using acetate buffer by spectrophotometry; values are per cent of control.
The target of data set [15] is Beta-lactamase (Enterobacter cloacae) (UniProt P05364). The data set is described as follows: Inhibition of Enterobacter cloacae P99 beta-lactamase assessed as residual activity at 100 uM at pH 5 using acetate buffer by spectrophotometry; values are per cent of control.
Data set [16] deals with T1, Imipenem-hydrolyzing beta-lactamase (Enterobacter cloacae). The data set is described as follows: Inhibition of Enterobacter cloacae NMCA beta-lactamase assessed as residual activity at 100 uM at pH 5 using acetate buffer by spectrophotometry; values are per cent of control.
In data set [17] the target is Beta-lactamase VIM-4 (Pseudomonas aeruginosa) (UniProt Q8KRJ3). The data set is described as follows: Inhibition of Pseudomonas aeruginosa VIM4 beta-lactamase assessed as residual activity at 100 uM at pH 7 using HEPES buffer by spectrophotometry; values are per cent of control.
Data set [18] deals with Beta-lactamase (Bacillus licheniformis) (UniProt P00808). As to the kind of experiment: Inhibition of Bacillus licheniformis BS3 beta-lactamase assessed as residual activity at 100 uM at pH 5 using acetate buffer by spectrophotometry; values are per cent of control.
For data set [19], the target named is T1, Imipenem-hydrolyzing beta-lactamase (Enterobacter cloacae). The data set is described as follows: Inhibition of Enterobacter cloacae NMCA beta-lactamase assessed as residual activity at 100 uM at pH 7 using phosphate buffer by spectrophotometry; values are per cent of control.
Data set [20] concerns the target Beta-lactamase OXA-10 (Pseudomonas aeruginosa) (UniProt P14489). The data set is described as follows: Inhibition of Pseudomonas aeruginosa OXA10 beta-lactamase assessed as residual activity at 100 uM at pH 5 using acetate buffer by spectrophotometry; values are per cent of control.
Another data set concerns the target Beta-lactamase (Bacillus licheniformis, UniProt P00808). As to the kind of experiment: Inhibition of Bacillus licheniformis BS3 beta-lactamase at pH 5.
For data set [21], the system named is O=C(Cc1cccs1)N[C@@H]1C(=O)N2C(C(=O)O)=C(/C=C/c3ccc([N+](=O)[O-])cc3[N+](=O)[O-])CS[C@H]12. The data set is described as follows: Activity of Pseudomonas aeruginosa VIM4 beta-lactamase.
Substrate in data set [22]: O=C(Cc1cccs1)N[C@@H]1C(=O)N2C(C(=O)O)=C(/C=C/c3ccc([N+](=O)[O-])cc3[N+](=O)[O-])CS[C@H]12
The data set is described as follows: Activity of Pseudomonas aeruginosa OXA10 beta-lactamase.

Substrate in data set [23]: O=C(Cc1cccs1)N[C@@H]1C(=O)N2C(C(=O)O)=C(/C=C/c3ccc([N+](=O)[O-])cc3[N+](=O)[O-])CS[C@H]12
As to the kind of experiment: Activity of Enterobacter cloacae NMCA beta-lactamase.

Sequence of Beta-lactamase (Enterobacter cloacae) (P05364 21-381 limits assumed): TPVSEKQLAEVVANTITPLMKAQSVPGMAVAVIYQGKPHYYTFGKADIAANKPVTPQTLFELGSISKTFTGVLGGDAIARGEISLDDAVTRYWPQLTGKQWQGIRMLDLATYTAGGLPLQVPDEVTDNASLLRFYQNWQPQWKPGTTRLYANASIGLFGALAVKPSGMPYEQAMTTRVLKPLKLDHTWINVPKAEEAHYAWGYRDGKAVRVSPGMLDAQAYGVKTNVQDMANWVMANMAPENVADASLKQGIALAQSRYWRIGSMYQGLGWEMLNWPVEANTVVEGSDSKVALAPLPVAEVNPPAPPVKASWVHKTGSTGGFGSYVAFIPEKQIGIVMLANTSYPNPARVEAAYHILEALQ
Sequence of Beta-lactamase (Bacillus licheniformis) (P00808 whole entry): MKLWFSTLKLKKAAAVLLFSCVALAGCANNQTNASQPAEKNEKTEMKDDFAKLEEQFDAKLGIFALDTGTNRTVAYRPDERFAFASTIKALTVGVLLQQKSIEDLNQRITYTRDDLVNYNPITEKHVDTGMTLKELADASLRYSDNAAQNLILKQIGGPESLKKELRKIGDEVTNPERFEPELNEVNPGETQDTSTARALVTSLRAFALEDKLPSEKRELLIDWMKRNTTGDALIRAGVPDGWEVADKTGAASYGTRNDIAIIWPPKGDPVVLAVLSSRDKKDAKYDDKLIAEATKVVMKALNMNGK
Sequence of Beta-lactamase (P00808 whole entry): as above

Take `COC(=O)CC(CC(=O)OC)(NC(=O)Cc1ccccc1)C(=O)OC`: in the data set with Bacillus cereus [1], the residual activity (as a rule, what remains of the control signal, in per cent) turned out to be 100%.

Regarding `CCOC(=O)CC(N)(CC(=O)OCC)C(=O)OCC`, the residual activity came out at 71% in data set [2]; 92% in the data set with Bacillus cereus [1]; 93% with Bacillus cereus [3]; 87% in data set [4]; 82% in data set [5].

For `O=C(Cc1cccs1)N[C@@H]1C(=O)N2C(C(=O)O)=C(/C=C/c3ccc([N+](=O)[O-])cc3[N+](=O)[O-])CS[C@H]12`, the Km (commonly the substrate concentration at which the rate is half of its maximum) came out at 20 µM in [6] and 10 µM in the data set on Bacillus cereus [7]. For the same molecule, the kcat (in general, the number of substrate molecules converted per active site and unit of time at saturation) amounted to 50 s⁻¹ in data set [6] and 40 s⁻¹ with Bacillus cereus [7]. Also, the Ratio in [8] was determined as 2.5 ×10⁶ /M/s; in data set [9], 3.5 ×10⁶ /M/s; in [10], 2 ×10⁷ /M/s; in the data set with Bacillus cereus [11] it was 4 ×10⁶ /M/s; in [12], 4 ×10⁶ /M/s.

In the case of `COC(=O)C(CC(=O)OCc1ccccc1)(CC(=O)OCc1ccccc1)NC(=O)COc1ccccc1`, the residual activity in data set [13] was found to be 10%.

For the molecule `COC(=O)CC(N)(CC(=O)OC)C(=O)O`, the residual activity amounted to 87% in [14]; 99% in data set [2]; 100% with Bacillus cereus [1]; 100% with Bacillus cereus [3]; 73% in data set [15]; 99% in [16]. Also, the residual activity in data set [17] is 100%; in data set [18], 100%; in data set [4], 100%; in data set [19], 95%; in data set [5] it was 95%; in data set [20] it was 79%. In addition, the residual activity in data set [13] was 100%.

With `COC(=O)C(N)(CC(=O)O)CC(=O)O`, the residual activity stood at 92% in [14]; 99% in data set [2]; 100% with Bacillus cereus [1]; 90% in the data set with Bacillus cereus [3]; 93% in data set [15]; 96% in data set [16]. Further, the residual activity is 100% in data set [17]; 97% in data set [18]; 100% in [4]; 94% in [19]; 96% in data set [5]; 83% in [20]. For the same molecule, in [13], the residual activity stood at 96%.

For `O=C(O)CC(C(=O)O)C(O)C(=O)O` (stereo not given) [ISOCITRATE], the Ki (commonly a measure of affinity in units of concentration, obtained from inhibition or displacement) at Beta-lactamase is 2.2 mM. In other words, the millimolar range.

Consider `CCOC(=O)CCC1(C(=O)OCC)CCC(=O)N1` (stereo not given), for which the residual activity is 80% in [14]; 94% in data set [2]; 100% with Bacillus cereus [3]; 100% in data set [15]; 100% in data set [16]; 96% in data set [17]. For the same molecule, the residual activity is 96% in data set [18]; 100% in [4]; 100% in data set [19]; 85% in data set [5]; 98% in data set [20]; 97% in data set [13].

With `COC(=O)C(N)(CC(=O)OCc1ccccc1)CC(=O)OCc1ccccc1`, the residual activity in [2] stood at 81%; in the data set with Bacillus cereus [1], 100%; with Bacillus cereus [3] it was 93%; in data set [4], 100%; in [19], 63%; in data set [5], 100%. Further, the residual activity in data set [13] was 100%.

In the case of `NC(C(=O)O)C(CC(=O)O)C(=O)O` (stereo not given), the residual activity is 90% in data set [14]; 100% in data set [2]; 100% in the data set with Bacillus cereus [3]; 94% in data set [15]; 86% in data set [16]; 94% in data set [17]. In addition, the residual activity was determined as 97% in data set [18]; 100% in data set [4]; 100% in [19]; 85% in [5]; 85% in [20]; 92% in [13].

With “Beta-lactamase VIM-4 (Pseudomonas aeruginosa) (from UniProt Q8KRJ3)”, in data set [21], the Km was 10 µM and the kcat came out at 40 s⁻¹.

Take `COC(=O)C(CC(=O)O)(CC(=O)O)NC(=O)COc1ccccc1`: the residual activity turned out to be 98% in data set [2]; 86% with Bacillus cereus [1]; 100% in the data set with Bacillus cereus [3]; 100% in [17]; 85% in [4]; 66% in data set [19]. Moreover, the residual activity worked out at 96% in data set [5] and 100% in data set [13].

Consider `O=C(O)CC(CC(=O)O)(NC(=O)COc1ccccc1)C(=O)O`, for which the residual activity in data set [14] is 100%; in data set [2] it was 96%; with Bacillus cereus [3] it was 100%; in data set [15], 100%; in [16] it was 85%; in data set [17], 100%. Also, the residual activity in [18] was 70%; in data set [4], 97%; in data set [19], 96%; in data set [5], 80%; in data set [20], 82%; in [13], 84%.

Regarding `COC(=O)CC(N)(CC(=O)OC)C(=O)OCc1ccccc1`, the residual activity (in the data set with Bacillus cereus [3]; in data set [13]) was 100% throughout.

`O=C(O)CC(O)(CC(=O)O)C(=O)O` [CITRIC ACID] gave an inhibition constant (Ki) at Beta-lactamase of 0.49 mM.

In the case of `CCOC(=O)C1CC(=O)NC1C(=O)OCC` (stereo not given), the residual activity in data set [14] was 86%; in data set [2], 100%; with Bacillus cereus [3], 100%; in data set [15], 100%; in data set [16] it was 93%; in data set [17], 94%. In addition, the residual activity was found to be 100% in [18]; 100% in data set [4]; 100% in data set [19]; 100% in data set [5]; 87% in data set [20]; 91% in data set [13].

B1: Beta-lactamase OXA-10 (Pseudomonas aeruginosa), P14489 (protein)
chain: MKTFAAYVIIACLSSTALAGSITENTSWNKEFSAEAVNGVFVLCKSSSKSCATNDLARASKEYLPASTFKIPNAIIGLETGVIKNEHQVFKWDGKPRAMKQWERDLTLRGAIQVSAVPVFQQIAREVGEVRMQKYLKKFSYGNQNISGGIDKFWLEGQLRISAVNQVEFLESLYLNKLSASKENQLIVKEALVTEAAPEYLVHSKTGFSGVGTESNPGVAWWVGWVEKETEVYFFAFNMDIDNESKLPLRKSIPTKIMESEGIIGG
In the case of B1, in data set [22], the Km was found to be 20 µM and the kcat amounted to 400 s⁻¹.

B2: Imipenem-hydrolyzing beta-lactamase (Enterobacter cloacae), P52663 (protein)
chain: MSLNVKQSRIAILFSSCLISISFFSQANTKGIDEIKNLETDFNGRIGVYALDTGSGKSFSYRANERFPLCSSFKGFLAAAVLKGSQDNRLNLNQIVNYNTRSLEFHSPITTKYKDNGMSLGDMAAAALQYSDNGATNIILERYIGGPEGMTKFMRSIGDEDFRLDRWELDLNTAIPGDERDTSTPAAVAKSLKTLALGNILSEHEKETYQTWLKGNTTGAARIRASVPSDWVVGDKTGSCGAYGTANDYAVVWPKNRAPLIISVYTTKNEKEAKHEDKVIAEASRIAIDNLK
As to B2, in [23], the Km stood at 40 µM and the kcat amounted to 130 s⁻¹.
